{"source": "patent US10675286B2", "about": "“Heterocyclic compounds and uses thereof” (Infinity Pharmaceuticals, Inc., priority 2014, dated 2020)", "key": {"[1]": {"tested_on": "LPS-induced neutrophil influx into BALF", "experiment": "LPS-induced neutrophilia in rats, oral administration", "assay_type": "in vivo", "conditions": "rat, p.o., 4 hours post-LPS challenge; dose dependent", "description": "This study also includes assessment of the exposure to the compounds in plasma and lung tissues.\nRef C is budesonide p.o. The compound was administered p.o. and about 1 hour later, LPS was administered intra-tracheally and plasma was collected. After about 5 hours, plasma and bronchoalveolar lavage samples were collected."}, "[2]": {"tested_on": "spleen T cell proliferation", "experiment": "Ex vivo T-cell proliferation assay with tumor-derived cells", "assay_type": "cell-based", "conditions": "compared to tumor derived cells from vehicle treated mice"}, "[3]": {"experiment": "Oral pharmacokinetics of Compound BB in dog", "assay_type": "in vivo", "conditions": "5 mg/kg oral", "from_the_text": "Compound BB's oral exposure is high in rat, dog and monkey. Good oral bioavailability and low clearance in rodent and non-rodent animal species results in high oral exposure."}, "P-GP (P-glycoprotein 1)": {"biological_target": "P-GP (P-glycoprotein 1) (Homo sapiens (Human), UniProt P08183)", "sequence (P08183 whole entry, species assumed)": "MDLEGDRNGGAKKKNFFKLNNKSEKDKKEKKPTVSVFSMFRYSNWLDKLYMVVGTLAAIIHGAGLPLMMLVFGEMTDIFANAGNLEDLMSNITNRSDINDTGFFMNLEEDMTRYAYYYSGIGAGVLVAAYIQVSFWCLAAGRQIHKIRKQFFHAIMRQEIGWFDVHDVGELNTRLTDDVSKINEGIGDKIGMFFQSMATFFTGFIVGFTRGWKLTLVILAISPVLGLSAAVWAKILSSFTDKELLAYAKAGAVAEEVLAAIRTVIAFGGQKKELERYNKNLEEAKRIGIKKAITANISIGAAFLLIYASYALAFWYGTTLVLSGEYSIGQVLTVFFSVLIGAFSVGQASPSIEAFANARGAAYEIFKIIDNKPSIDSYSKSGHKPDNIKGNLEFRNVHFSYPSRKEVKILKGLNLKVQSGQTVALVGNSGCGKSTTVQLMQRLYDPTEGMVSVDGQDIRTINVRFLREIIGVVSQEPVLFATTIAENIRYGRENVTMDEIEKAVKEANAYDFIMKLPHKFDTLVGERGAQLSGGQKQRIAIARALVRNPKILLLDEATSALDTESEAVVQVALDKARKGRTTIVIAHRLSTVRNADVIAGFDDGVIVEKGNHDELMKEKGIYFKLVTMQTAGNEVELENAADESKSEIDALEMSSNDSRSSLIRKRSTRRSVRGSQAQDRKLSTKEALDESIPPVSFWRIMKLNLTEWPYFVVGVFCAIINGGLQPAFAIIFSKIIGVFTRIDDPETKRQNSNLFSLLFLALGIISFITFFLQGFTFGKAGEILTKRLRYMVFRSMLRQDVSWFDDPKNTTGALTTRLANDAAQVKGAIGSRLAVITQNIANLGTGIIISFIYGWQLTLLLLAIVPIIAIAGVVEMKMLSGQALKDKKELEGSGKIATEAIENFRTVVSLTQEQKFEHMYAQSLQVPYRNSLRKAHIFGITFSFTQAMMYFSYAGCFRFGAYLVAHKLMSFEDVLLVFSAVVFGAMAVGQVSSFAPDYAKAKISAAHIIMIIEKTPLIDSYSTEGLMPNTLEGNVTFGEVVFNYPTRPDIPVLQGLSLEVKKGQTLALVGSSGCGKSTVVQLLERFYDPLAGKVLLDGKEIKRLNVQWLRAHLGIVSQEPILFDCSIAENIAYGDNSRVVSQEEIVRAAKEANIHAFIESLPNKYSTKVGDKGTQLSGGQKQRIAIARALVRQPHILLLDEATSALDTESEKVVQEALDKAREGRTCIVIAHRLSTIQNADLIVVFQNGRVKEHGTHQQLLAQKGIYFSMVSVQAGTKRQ", "experiment": "P-gp inhibition", "assay_type": "in vitro ADME"}, "Farage cell line": {"tested_on": "Farage cell line", "experiment": "Combination isobologram in Farage cell line", "assay_type": "cell-based", "conditions": "combination of Compound AA and Compound BB"}, "[4]": {"tested_on": "T cell proliferation suppressed by CT26 tumor cells", "experiment": "Ex vivo T cell proliferation (CFSE) with cells of CT26 tumors", "assay_type": "cell-based, mouse", "conditions": "vs tumor cells from vehicle treated mice", "description": "CT26 was an N-nitroso-N-methylurethane-(NNMU)induced, undifferentiated colon carcinoma cell line. It was cloned to generate the cell line designated CT26.WT (ATCC CRL-2638).\nThe duration of the study was 1 week under treatment. 5-6 week old female, Balb/c mice (Jackson Labs) implanted subcutaneously with 5×10^5CT26 cells in 100 μl PBS. CT26 cells were cultured in RPMI supplemented with 10% FBS. Dosing commenced when tumors reached an average volume of 500-600 mm^3.\nFor group 3 (αPD-L1), the mice were dosed once, IP, 200 ug (200 uL from 1 mg/ml stock).\nMice were monitored daily for adverse clinical effects. Body weights and tumor luminescent were measured two times per week. At the end of the study, tumors were harvested and cut into 3 parts; one piece for CTL killing assay, one piece for CSFE proliferation assay and one piece (split into two) for OCT/FFPE.\nSpleens from 3 vehicle treated tumor bearing mice were physically dissociated in T cell media and passed through a 70 micron filter. After red cell lysis, the cells were pooled, brought up in PBS and stained with CFSE (invitrogen). After washing, these cells were brought up in 20 ml T cell media. Half the cells received Dynal mouse activator beads (CD3/CD28 crosslinking at a 1:1 concentration). CD3/CD28 beads induce proliferation in splenocytes from tumor bearing mouse (data not shown). […]"}, "[5]": {"experiment": "Tumor growth, Compound BB alone and with 5-FU (FIG. 35)", "assay_type": "in vivo"}, "GL-261 glioma": {"tested_on": "GL-261 glioma", "experiment": "GL-261 glioma model, Compound BB with or without temozolomide", "assay_type": "in vivo, mouse", "conditions": "Compound BB 15 mg/kg QD PO, from start or following temozolomide, vs vehicle", "description": "TMZ was dosed IP 1×/day for 7 days.\nAnimals: C57 Albino mice (male) from Jackson Labs, n=80. Parameters Evaluated:\nIn life: Mice were dosed QD with Compound BB. Temozolomide was dosed QD IP, for 7 days. Tumor measurements and bodyweights were taken 2×/week, but caliper and xenogen measurements.\nEnd point analysis: Tumors were cut in half. One half was cut in half again with ½ fixed in 10% NBF the other was frozen in OCT for frozen sections. The remaining half was processed to single cell suspention and evaluated by FACS.\nPD satellite group—8 mice from the TMZ treated mice and 8 mice from the vehicle treated mice were sacrificed on day 7 post treatment. Tumors were processed to single cell suspention and evaluated by FACS."}, "[6]": {"tested_on": "RANKL driven differentiation of osteoclasts", "experiment": "Osteoclast differentiation assay (TRAP) from bone marrow macrophages", "assay_type": "cell-based, mouse", "conditions": "6 days", "description": "Long bones from young C57B6 mice were harvested and bone marrow was extruded by gentle lavage of the bone marrow cavities with a 28 gage needle. The cells were screened, and red blood cells were removed using red blood cell lysis buffer (Sigma). Bone marrow cells were differentiated to macrophages using 20 ng/ml mouse MCSF (RnD systems) for 3 days (RPMI and 20% FCS). The cell were washed with PBS, and lifted with Accutase for 10 minutes.\nThe bone marrow macrophage cells were plated at 150,000 cells per well in a 96 well plate in a MEM 10% FCS. […] Then 25 ng/ml mouse MCSF with or without mouse RANKL (100 ng/ml, RnD systems) was added for 6 days. Media changes (including drugs) were done at day 3 and day 5. The cells were then fixed and stained with the tartrate resistant acid phosphatase (TRAP) assay kit from Sigma according to the manufactures instructions. TRAP positive cells (osteoclasts and cells undergoing an osteoclastic differentiation) in a transect of the triplicate wells (at 20× […]) were manually counted by going through the widest part of each well."}, "TMD8 cell line": {"tested_on": "TMD8 cell line", "experiment": "Combination isobologram in TMD8 cell line", "assay_type": "cell-based", "conditions": "combination of Compound AA and Compound BB"}, "Lewis Lung Carcinoma": {"tested_on": "Lewis Lung Carcinoma", "experiment": "Lewis Lung Carcinoma model", "assay_type": "in vivo", "conditions": "single agent"}, "4T1 breast cancer": {"tested_on": "4T1 breast cancer", "experiment": "Subcutaneous 4T1 breast cancer model", "assay_type": "in vivo"}}, "note": "“Also recorded” adds a separate entry of the source.", "data": [{"molecule": "C[C@H](NC(=O)c1c(N)nn2cccnc12)c1cc2cccc(C#Cc3cnn(C)c3)c2c(=O)n1-c1ccccc1", "note": "[Compound BB]", "values": [{"measurement": "Neutrophil in bronchoalveolar lavage fluid (BALF)", "setting": "[1]", "value": "reduced neutrophil in bronchoalveolar lavage fluid (BALF); also recorded: more profound effect on neutrophil influx"}, {"measurement": "inhibition of spleen T cell proliferation by cells isolated from tumors of treated mice", "setting": "[2]", "value": "less inhibitory"}, {"measurement": "Oral exposure (plasma concentrations within 24 hours, FIG. 43)", "setting": "[3]", "value": "high"}, {"measurement": "P-GP (P-glycoprotein 1) inhibition", "setting": "P-GP (P-glycoprotein 1)", "value": "appears to be an inhibitor of P-GP"}, {"measurement": "effect of the combination (isobologram)", "setting": "Farage cell line", "value": "synergistic effect"}, {"measurement": "Inhibition of spleen T cell proliferation by tumor cells of treated mice (FIGS. 55, 56)", "setting": "[4]", "value": "less inhibitory of spleen T cell proliferation; also recorded: can release the suppression"}, {"measurement": "tumor growth", "setting": "[5]; Compound BB alone", "value": "reduction in tumor growth"}, {"measurement": "tumor growth", "setting": "[5]; co-administration of Compound BB and 5-FU", "value": "further reduction"}, {"measurement": "Tumor volume (FIGS. 53, 54)", "setting": "GL-261 glioma", "value": "effective in reducing the tumor volume; also recorded: significant reduction in tumor volume"}, {"measurement": "RANKL driven differentiation of osteoclasts (TRAP positive cells, FIG. 17)", "setting": "[6]", "value": "prevents RANKL driven differentiation of osteoclasts"}, {"measurement": "effect of the combination (isobologram)", "setting": "TMD8 cell line", "value": "synergistic effect"}, {"measurement": "activity in the Lewis Lung Carcinoma model", "setting": "Lewis Lung Carcinoma", "value": "single agent activity"}, {"measurement": "tumor growth", "setting": "4T1 breast cancer; co-administration with docetaxel, paclitaxel, or 5-FU", "value": "further reduction in tumor growth"}, {"measurement": "activity in subcutaneous 4T1 breast cancer model", "setting": "4T1 breast cancer; single agent", "value": "single agent activity"}]}]}
